In ChEMBL document CHEMBL4118122, “Identification and biological evaluation of thiazole-based inverse agonists of RORγt” (Bioorg Med Chem Lett, 2018):
Values after ≈ are worked out from the molar mass of the structure shown.

What was measured:
PXR (NR1I2) [1] = target: T1, PXR (NR1I2) (Homo sapiens, UniProt O75469); test: […] at PXR LBD (unknown origin) expressed in HEK293 cells […] at 5 uM after 16 hrs by luciferase reporter gene assay relative to rifampicin; type: ADME, cell-based; conditions: HEK293 cells expressing PXR LBD, read-out: Efficacy
T1 sequence (O75469 whole entry): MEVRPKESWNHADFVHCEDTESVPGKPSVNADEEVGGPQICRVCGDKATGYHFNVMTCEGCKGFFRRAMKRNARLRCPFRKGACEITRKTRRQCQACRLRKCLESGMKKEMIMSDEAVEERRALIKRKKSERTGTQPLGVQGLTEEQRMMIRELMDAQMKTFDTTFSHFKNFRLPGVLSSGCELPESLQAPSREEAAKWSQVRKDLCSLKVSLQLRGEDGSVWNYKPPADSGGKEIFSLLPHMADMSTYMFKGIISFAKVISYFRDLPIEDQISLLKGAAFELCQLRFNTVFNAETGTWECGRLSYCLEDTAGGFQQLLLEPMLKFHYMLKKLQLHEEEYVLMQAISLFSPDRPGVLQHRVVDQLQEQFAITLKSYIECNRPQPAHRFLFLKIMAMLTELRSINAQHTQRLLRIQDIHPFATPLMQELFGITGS

PXR (NR1I2) [2] = target: T1, PXR (NR1I2); test: […] at PXR LBD (unknown origin) expressed in HEK293 cells […] at 1 uM after 16 hrs by luciferase reporter gene assay relative to rifampicin; type: ADME, cell-based; conditions: HEK293 cells expressing PXR LBD, read-out: Efficacy
PXR (NR1I2) [3] = target: T1, PXR (NR1I2); test: […] at PXR LBD (unknown origin) expressed in HEK293 cells […] at 10 uM after 16 hrs by luciferase reporter gene assay relative to rifampicin; type: ADME, cell-based; conditions: HEK293 cells expressing PXR LBD, read-out: Efficacy
[4] = Thermodynamic solubility of the compound in 30 mM phosphate buffer at 10 mM at pH 7 after 2 to 5 days by UV-HPLC analysis; type: physicochemical; conditions: read-out: Therm_solubility
[5] = Half life in human microsomes; type: ADME, Microsome
Cytochrome P450 2C19 = Cytochrome P450 2C19 (Homo sapiens, UniProt P33261); test: Inhibition of CYP2C19 (unknown origin); type: ADME
Sequence of Cytochrome P450 2C19 (P33261 whole entry): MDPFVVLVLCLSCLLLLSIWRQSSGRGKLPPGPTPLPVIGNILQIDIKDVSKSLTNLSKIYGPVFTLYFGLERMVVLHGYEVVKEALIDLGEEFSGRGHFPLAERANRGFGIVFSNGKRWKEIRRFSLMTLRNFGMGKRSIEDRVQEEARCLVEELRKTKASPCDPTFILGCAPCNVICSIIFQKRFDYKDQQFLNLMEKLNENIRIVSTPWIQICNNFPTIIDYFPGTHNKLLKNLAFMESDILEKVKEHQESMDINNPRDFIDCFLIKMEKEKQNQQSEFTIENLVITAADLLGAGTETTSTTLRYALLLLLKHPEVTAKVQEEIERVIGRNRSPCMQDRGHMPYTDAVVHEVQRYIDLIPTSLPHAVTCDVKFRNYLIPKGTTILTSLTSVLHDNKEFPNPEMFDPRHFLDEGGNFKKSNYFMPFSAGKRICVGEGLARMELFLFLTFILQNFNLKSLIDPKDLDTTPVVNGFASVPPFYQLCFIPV

[6] = Half life in rat microsomes; type: ADME, Microsome
Cytochrome P450 3A4 = Cytochrome P450 3A4 (Homo sapiens, UniProt P08684); test: Inhibition of CYP3A4 (unknown origin); type: ADME
Sequence of Cytochrome P450 3A4 (P08684 whole entry): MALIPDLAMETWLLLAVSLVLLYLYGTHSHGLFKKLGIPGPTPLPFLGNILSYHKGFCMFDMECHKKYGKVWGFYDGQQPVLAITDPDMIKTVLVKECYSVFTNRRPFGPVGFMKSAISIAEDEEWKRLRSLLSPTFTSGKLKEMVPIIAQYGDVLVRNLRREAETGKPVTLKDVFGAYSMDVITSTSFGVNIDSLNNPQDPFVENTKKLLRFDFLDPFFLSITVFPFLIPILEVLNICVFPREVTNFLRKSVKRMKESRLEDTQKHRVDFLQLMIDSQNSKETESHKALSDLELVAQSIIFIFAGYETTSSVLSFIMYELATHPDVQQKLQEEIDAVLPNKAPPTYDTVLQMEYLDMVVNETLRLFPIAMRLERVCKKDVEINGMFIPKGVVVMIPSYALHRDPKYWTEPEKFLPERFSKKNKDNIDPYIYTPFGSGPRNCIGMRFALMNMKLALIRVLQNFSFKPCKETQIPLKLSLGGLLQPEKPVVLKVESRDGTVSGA

Cytochrome P450 2C9 = Cytochrome P450 2C9 (Homo sapiens, UniProt P11712); test: Inhibition of CYP2C9 (unknown origin); type: ADME
Sequence of Cytochrome P450 2C9 (P11712 whole entry): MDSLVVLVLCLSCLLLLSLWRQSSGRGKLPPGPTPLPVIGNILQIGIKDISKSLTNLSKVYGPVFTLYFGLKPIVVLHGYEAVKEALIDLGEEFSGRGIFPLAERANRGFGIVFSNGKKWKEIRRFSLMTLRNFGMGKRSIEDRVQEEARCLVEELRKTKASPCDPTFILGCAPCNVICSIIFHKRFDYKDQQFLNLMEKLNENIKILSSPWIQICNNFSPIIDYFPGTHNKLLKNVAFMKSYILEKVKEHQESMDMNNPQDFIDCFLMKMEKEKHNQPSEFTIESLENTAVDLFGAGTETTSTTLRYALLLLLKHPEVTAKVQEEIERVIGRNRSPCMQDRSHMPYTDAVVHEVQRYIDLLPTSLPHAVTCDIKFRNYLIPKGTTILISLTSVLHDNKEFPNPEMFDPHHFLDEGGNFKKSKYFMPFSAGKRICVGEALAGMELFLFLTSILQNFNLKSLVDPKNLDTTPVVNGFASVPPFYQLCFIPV

Cytochrome P450 1A2 = target: T2, Cytochrome P450 1A2 (Homo sapiens, UniProt P05177); test: Inhibition of CYP1A2 (unknown origin); type: ADME
T2 sequence (P05177 whole entry): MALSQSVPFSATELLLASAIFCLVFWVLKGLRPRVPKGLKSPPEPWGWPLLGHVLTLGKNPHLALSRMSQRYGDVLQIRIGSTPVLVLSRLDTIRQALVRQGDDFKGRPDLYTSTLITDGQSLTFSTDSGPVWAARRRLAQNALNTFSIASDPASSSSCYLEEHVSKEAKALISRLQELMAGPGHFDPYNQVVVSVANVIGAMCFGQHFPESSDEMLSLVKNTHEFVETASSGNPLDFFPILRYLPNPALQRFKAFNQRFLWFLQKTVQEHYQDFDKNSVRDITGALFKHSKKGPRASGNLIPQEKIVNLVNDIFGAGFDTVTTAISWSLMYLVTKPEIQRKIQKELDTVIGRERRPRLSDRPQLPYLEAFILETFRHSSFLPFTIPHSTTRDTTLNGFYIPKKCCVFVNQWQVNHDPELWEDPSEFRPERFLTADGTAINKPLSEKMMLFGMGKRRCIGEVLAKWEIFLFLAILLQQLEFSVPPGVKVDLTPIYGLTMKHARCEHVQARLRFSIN

Cytochrome P450 2D6 = Cytochrome P450 2D6 (Homo sapiens, UniProt P10635); test: Inhibition of CYP2D6 (unknown origin); type: ADME
Sequence of Cytochrome P450 2D6 (P10635 whole entry): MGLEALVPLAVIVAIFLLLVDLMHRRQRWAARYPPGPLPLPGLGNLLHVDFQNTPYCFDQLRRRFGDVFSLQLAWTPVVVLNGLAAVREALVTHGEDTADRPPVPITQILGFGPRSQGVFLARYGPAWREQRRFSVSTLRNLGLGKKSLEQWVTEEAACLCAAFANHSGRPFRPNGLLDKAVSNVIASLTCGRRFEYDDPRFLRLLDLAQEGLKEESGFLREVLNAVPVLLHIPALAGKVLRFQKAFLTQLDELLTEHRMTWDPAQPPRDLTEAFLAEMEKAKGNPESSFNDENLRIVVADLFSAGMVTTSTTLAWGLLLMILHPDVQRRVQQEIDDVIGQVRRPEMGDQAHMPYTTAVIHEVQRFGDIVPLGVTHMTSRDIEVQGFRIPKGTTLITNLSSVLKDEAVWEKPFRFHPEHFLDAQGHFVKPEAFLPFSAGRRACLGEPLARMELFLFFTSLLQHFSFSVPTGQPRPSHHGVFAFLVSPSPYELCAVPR

Cytochrome P450 2C8 = target: T3, Cytochrome P450 2C8 (Homo sapiens, UniProt P10632); test: Inhibition of CYP2C8 (unknown origin); type: ADME
T3 sequence (P10632 whole entry): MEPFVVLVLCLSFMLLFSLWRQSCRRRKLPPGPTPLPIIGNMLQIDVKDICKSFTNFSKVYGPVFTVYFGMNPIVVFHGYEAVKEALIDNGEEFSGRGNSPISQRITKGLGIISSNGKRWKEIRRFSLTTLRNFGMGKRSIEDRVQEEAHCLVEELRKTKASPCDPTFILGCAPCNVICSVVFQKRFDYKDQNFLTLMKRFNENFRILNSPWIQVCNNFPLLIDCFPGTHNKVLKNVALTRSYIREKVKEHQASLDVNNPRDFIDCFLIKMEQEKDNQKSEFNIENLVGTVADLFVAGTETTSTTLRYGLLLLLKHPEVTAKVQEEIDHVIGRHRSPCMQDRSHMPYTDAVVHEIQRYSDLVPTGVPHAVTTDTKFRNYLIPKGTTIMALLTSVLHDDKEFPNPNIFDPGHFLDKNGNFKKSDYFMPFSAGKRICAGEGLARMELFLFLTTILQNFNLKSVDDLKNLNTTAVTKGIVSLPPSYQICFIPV

`CC(C)(CCF)NS(=O)(=O)c1ccc(-c2sc(C(=O)N[C@H]3C[C@H](C(=O)O)C3)nc2CC2CCCCC2)c2ccccc12` gave an Emax at 16 h, 5 µM (PXR (NR1I2) [1]) of 117% and an Emax at 16 h, 1 µM (PXR (NR1I2) [2]) of 91%.

For `CC(C)(C)NS(=O)(=O)c1ccc(-c2sc(C(=O)NC3CCS(=O)(=O)CC3)nc2C(C)(C)C)c2ccccc12`, the Emax at 16 h, 5 µM (PXR (NR1I2) [1]) was 112% and the Emax at 16 h, 1 µM (PXR (NR1I2) [2]) was 66%.

Work on `C[C@H](NS(=O)(=O)c1ccc(-c2sc(C(=O)NCC(C)(C)O)nc2Cc2ccc(F)cc2)c(Cl)c1Cl)C(F)(F)F` yielded an Emax at 16 h, 5 µM (PXR (NR1I2) [1]) of 134% and an Emax at 16 h, 1 µM (PXR (NR1I2) [2]) of 80%.

`CC(C)(O)CNC(=O)c1nc(CC2CCCCC2)c(-c2ccc(S(=O)(=O)NC(C)(C)C)c3ccccc23)s1` showed an Emax at 16 h, 5 µM (PXR (NR1I2) [1]) of 116% and an Emax at 16 h, 1 µM (PXR (NR1I2) [2]) of 138%.

`C[C@H](NC(=O)c1cc(-c2sc(C(=O)N[C@H]3C[C@H](C(=O)O)C3)nc2CC2CCCCC2)cc(C2(C)CC2)c1)C(F)(F)F` gave an Emax at 16 h, 10 µM (PXR (NR1I2) [3]) of 94%, a solubility thermodynamic at 10000 µM [4] of 17 µM (≈ 10.1 µg/mL) and a half-life [5] greater than 180 min. The INH (Cytochrome P450 2C19) was greater than 10 µM, the half-life [6] was 150 min and the INH (Cytochrome P450 3A4) was greater than 10 µM. It also gave an INH (Cytochrome P450 2C9) greater than 10 µM, an INH (Cytochrome P450 1A2) greater than 10 µM and an INH (Cytochrome P450 2D6) greater than 10 µM. For the same molecule, the Emax at 16 h, 1 µM (PXR (NR1I2) [2]) was 26% and the INH (Cytochrome P450 2C8) was greater than 10 µM.

For `CC(C)(C)NS(=O)(=O)c1ccc(-c2sc(C(=O)NC3CS(=O)(=O)C3)nc2CC2CCCCC2)c2ccccc12`, the Emax at 16 h, 10 µM (PXR (NR1I2) [3]) was 187% and the Emax at 16 h, 1 µM (PXR (NR1I2) [2]) was 181%.

`CC(C)(O)CNC(=O)c1nc(CC2CCCCC2)c(-c2ccc(S(=O)(=O)NC(C)(C)C)c(Cl)c2C(F)F)s1` gave a half-life [5] of 18 min, an INH (Cytochrome P450 2C19) of 5.6 µM and a half-life [6] of 14 min. It also gave an INH (Cytochrome P450 3A4) of 6.9 µM, an INH (Cytochrome P450 2C9) of 0.4 µM and an INH (Cytochrome P450 1A2) greater than 10 µM. The INH (Cytochrome P450 2D6) was greater than 10 µM and the INH (Cytochrome P450 2C8) was 4.6 µM.

`C[C@H](NC(=O)c1cc(-c2sc(C(=O)N[C@H]3C[C@H](C(=O)O)C3)nc2CC2CCCCC2)cc(C(C)(C)C)c1)C(F)(F)F` showed an Emax at 16 h, 5 µM (PXR (NR1I2) [1]) of 59% and an Emax at 16 h, 1 µM (PXR (NR1I2) [2]) of 29%.

In the case of `CC(C)(C)c1cc(-c2sc(C(=O)N[C@H]3C[C@H](C(=O)O)C3)nc2CC2CCCCC2)cc(C(O)(C(F)(F)F)C(F)(F)F)c1`, the Emax at 16 h, 5 µM (PXR (NR1I2) [1]) is reported as 89% and the Emax at 16 h, 1 µM (PXR (NR1I2) [2]) is reported as 41%.

Molecule `CC(C)(C)NS(=O)(=O)c1ccc(-c2sc(C(=O)NC3CCOCC3)nc2CC2CCCCC2)c2ccccc12` has an Emax at 16 h, 10 µM (PXR (NR1I2) [3]) of 206% and an Emax at 16 h, 1 µM (PXR (NR1I2) [2]) of 181%.

Molecule `C[C@H](NS(=O)(=O)c1ccc(-c2sc(C(=O)N3CC4(C3)CS(=O)(=O)C4)nc2CC2CCC2)c(Cl)c1Cl)C(F)(F)F` has an Emax at 16 h, 5 µM (PXR (NR1I2) [1]) of 106% and an Emax at 16 h, 1 µM (PXR (NR1I2) [2]) of 56%.

For `CCC(C)(C)NS(=O)(=O)c1ccc(-c2sc(C(=O)N[C@H]3C[C@H](C(=O)O)C3)nc2CC2CCCCC2)c2ccccc12`, the Emax at 16 h, 5 µM (PXR (NR1I2) [1]) was 158% and the Emax at 16 h, 1 µM (PXR (NR1I2) [2]) was 116%.

For `CC(C)(CCO)NS(=O)(=O)c1ccc(-c2sc(C(=O)N[C@H]3C[C@H](C(=O)O)C3)nc2CC2CCCCC2)c2ccccc12`, the Emax at 16 h, 5 µM (PXR (NR1I2) [1]) was 53% and the Emax at 16 h, 1 µM (PXR (NR1I2) [2]) was 15%.

Molecule `CC(C)(C)NS(=O)(=O)c1ccc(-c2sc(C(=O)N3CC4(CCS(=O)(=O)CC4)C3)nc2CC2CCCCC2)c2ccccc12` has an Emax at 16 h, 10 µM (PXR (NR1I2) [3]) of 128% and an Emax at 16 h, 1 µM (PXR (NR1I2) [2]) of 116%.

In the case of `C[C@H](NS(=O)(=O)c1ccc(-c2sc(C(=O)NCC(C)(C)O)nc2COC(C)(C)C)c(Cl)c1Cl)C(F)(F)F`, the solubility thermodynamic at 10000 µM [4] is reported as 12 µM (≈ 7.28 µg/mL), the half-life [5] is reported as greater than 180 min and the INH (Cytochrome P450 2C19) is reported as 6.5 µM. The half-life [6] was greater than 180 min, the INH (Cytochrome P450 3A4) was greater than 10 µM and the Emax at 16 h, 5 µM (PXR (NR1I2) [1]) was 117%. The INH (Cytochrome P450 2C9) was 1.7 µM, the INH (Cytochrome P450 2D6) was greater than 10 µM and the Emax at 16 h, 1 µM (PXR (NR1I2) [2]) was 61%. It also gave an INH (Cytochrome P450 2C8) greater than 10 µM.
